Experimental data published in PubChem BioAssay (NCI).
Values after ≈ are worked out from the molar mass of the structure shown.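 Grown in 96-well plates, cells were treated for 48 hours with each compound at five concentrations. Insufficient inhibition: endpoint recorded as highest concentration tested. Here, GI50 denotes the concentration required for 50% inhibition of growth. At the TGI there is no net growth.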 Non-standard residues stand in square brackets, D forms with d. Residues, ends and D or L forms follow the SMILES beside them. *: point of attachment. ONb = O=[N+]([O-])c1ccc(CO*)cc1; AllylGly = C=CC[CH](N)C(=O)O; Boc = CC(C)(C)OC(=O)*

How the values were obtained:
Experiment in all cases: NCI anticancer screen, dose series, 48 h
[1] = test system: 786-0 renal
[2] = test system: A498 renal
[3] = test system: A549 NSCLC
[4] = test system: ACHN renal
[5] = test system: CAKI-1 renal
[6] = test system: CCRF-CEM leukemia
[7] = test system: COLO 205 colon
[8] = test system: DU-145 prostate
[9] = test system: HCC-2998 colon
[10] = test system: HCT-116 colon
[11] = test system: HCT-15 colon
[12] = test system: HL-60(TB) leukemia
[13] = test system: HOP-62 NSCLC
[14] = test system: HOP-92 NSCLC
[15] = test system: HS 578T breast
[16] = test system: HT29 colon
[17] = test system: IGROV1 ovarian
[18] = test system: K-562 leukemia
[19] = test system: KM12 colon
[20] = test system: LOX IMVI melanoma
[21] = test system: MALME-3M melanoma
[22] = test system: MCF7 breast
[23] = test system: MDA-MB-231 breast
[24] = test system: MDA-MB-435
[25] = test system: MOLT-4 leukemia
[26] = test system: NCI-H226 lung
[27] = test system: NCI-H23 lung
[28] = test system: NCI-H460 lung
[29] = test system: NCI-H522 lung
[30] = test system: NCI/ADR-RES ovarian
[31] = test system: OVCAR-3 ovarian
[32] = test system: OVCAR-4 ovarian
[33] = test system: OVCAR-5 ovarian
[34] = test system: OVCAR-8 ovarian
[35] = test system: PC-3 prostate
[36] = test system: RPMI-8226 leukemia
[37] = test system: RXF 393 renal
[38] = test system: SF-268 CNS
[39] = test system: SF-295 CNS
[40] = test system: SF-539 CNS
[41] = test system: SK-MEL-2 melanoma
[42] = test system: SK-MEL-28 melanoma
[43] = test system: SK-MEL-5 melanoma
[44] = test system: SK-OV-3 ovarian
[45] = test system: SN12C renal
[46] = test system: SNB-19 CNS
[47] = test system: SNB-75 CNS
[48] = test system: SR leukemia
[49] = test system: SW-620 colon
[50] = test system: TK-10 renal
[51] = test system: U251 CNS
[52] = test system: UACC-257 melanoma
[53] = test system: UACC-62 melanoma
[54] = test system: UO-31 renal
[55] = test system: EKVX NSCLC
[56] = test system: M14 melanoma
[57] = test system: T-47D breast

## Cc1cc(-c2ncc(CC(=O)Nc3ccc(-c4cnccn4)cn3)cc2C)ccn1
[1]
  GI50: > 100 µM
  TGI: > 100 µM
[2]
  GI50: 2.8 µM
  TGI: 65.5 µM
[3]
  GI50: 36.7 µM
  TGI: > 100 µM
[4]
  GI50: 31.5 µM
  TGI: > 100 µM
[5]
  GI50: 17.1 µM
  TGI: > 100 µM
[6]
  GI50: 35.8 µM
  TGI: > 100 µM
[7]
  GI50: 42.8 µM
  TGI: > 100 µM
[8]
  GI50: 72.9 µM
  TGI: > 100 µM
[9]
  GI50: > 100 µM
  TGI: > 100 µM
[10]
  GI50: 49 µM
  TGI: > 100 µM
[11]
  GI50: 38.4 µM
  TGI: > 100 µM
[12]
  GI50: 39.3 µM
  TGI: > 100 µM
[13]
  GI50: 33.5 µM
  TGI: > 100 µM
[14]
  GI50: 12 µM
  TGI: 81.8 µM
[15]
  GI50: 26 µM
  TGI: > 100 µM
[16]
  GI50: 57.8 µM
  TGI: > 100 µM
[17]
  GI50: 30.5 µM
  TGI: > 100 µM
[18]
  GI50: 22.2 µM
  TGI: > 100 µM
[19]
  GI50: 36.1 µM
  TGI: > 100 µM
[20]
  GI50: 68.7 µM
  TGI: > 100 µM
[21]
  GI50: 21.2 µM
  TGI: > 100 µM
[22]
  GI50: 19.1 µM
  TGI: > 100 µM
[23]
  GI50: 55.7 µM
  TGI: > 100 µM
[24]
  GI50: 21.8 µM
  TGI: > 100 µM
[25]
  GI50: 23.9 µM
  TGI: > 100 µM
[26]
  GI50: 13.7 µM
  TGI: > 100 µM
[27]
  GI50: 23.6 µM
  TGI: > 100 µM
[28]
  GI50: 63 µM
  TGI: > 100 µM
[29]
  GI50: 22.7 µM
  TGI: > 100 µM
[30]
  GI50: 17.6 µM
  TGI: > 100 µM
[31]
  GI50: 41.2 µM
  TGI: > 100 µM
[32]
  GI50: 6.11 µM
  TGI: > 100 µM
[33]
  GI50: 26.3 µM
  TGI: > 100 µM
[34]
  GI50: 25.6 µM
  TGI: > 100 µM
[35]
  GI50: 28.2 µM
  TGI: > 100 µM
[36]
  GI50: 19.2 µM
  TGI: > 100 µM
[37]
  GI50: 42.2 µM
  TGI: > 100 µM
[38]
  GI50: 96 µM
  TGI: > 100 µM
[39]
  GI50: 15.3 µM
  TGI: > 100 µM
[40]
  GI50: 26.1 µM
  TGI: > 100 µM
[41]
  GI50: 27.8 µM
  TGI: > 100 µM
[42]
  GI50: 28.2 µM
  TGI: > 100 µM
[43]
  GI50: 6.69 µM
  TGI: 29.6 µM
[44]
  GI50: > 100 µM
  TGI: > 100 µM
[45]
  GI50: 91.7 µM
  TGI: > 100 µM
[46]
  GI50: 34.6 µM
  TGI: > 100 µM
[47]
  GI50: 13.8 µM
  TGI: > 100 µM
[48]
  GI50: 18.4 µM
  TGI: > 100 µM
[49]
  GI50: 98.7 µM
  TGI: > 100 µM
[50]
  GI50: 16.4 µM
  TGI: > 100 µM
[51]
  GI50: 24.6 µM
  TGI: > 100 µM
[52]
  GI50: 16.6 µM
  TGI: > 100 µM
[53]
  GI50: 22.1 µM
  TGI: > 100 µM
[54]
  GI50: 12.7 µM
  TGI: > 100 µM

## C=CCC(NC(=O)OC(C)(C)C)C(=O)NC(CCC(=O)OCc1ccc([N+](=O)[O-])cc1)C(N)=O (stereo not given) (Boc-[AllylGly]-Glu(ONb)-NH2; configuration not given here)
[1]
  GI50: 21.9 µg/mL
  TGI: 52 µg/mL
[2]
  GI50: 13.4 µg/mL
  TGI: 27.9 µg/mL
[3]
  GI50: 52.3 µg/mL
[4]
  GI50: 18.1 µg/mL
  TGI: 33.3 µg/mL
[5]
  GI50: 19.1 µg/mL
  TGI: 54.5 µg/mL
[6]
  GI50: 31.8 µg/mL
[7]
  GI50: 22.9 µg/mL
  TGI: 53.1 µg/mL
[55]
  GI50: 22.8 µg/mL (≈ 47.6 µM)
  TGI: 61.7 µg/mL (≈ 129 µM)
[9]
  GI50: 19.2 µg/mL
  TGI: 43.7 µg/mL
[12]
  GI50: 53.1 µg/mL
[14]
  GI50: 13.3 µg/mL
  TGI: 26.5 µg/mL
[15]
  GI50: 19.8 µg/mL
  TGI: 45.5 µg/mL
[17]
  GI50: 34.1 µg/mL
[18]
  GI50: 18.2 µg/mL
  TGI: 65.5 µg/mL
[20]
  GI50: 49 µg/mL
[56]
  GI50: 33 µg/mL (≈ 69.1 µM)
[21]
  GI50: 18.4 µg/mL
  TGI: 33.1 µg/mL
[23]
  GI50: 93 µg/mL
[27]
  GI50: 29.6 µg/mL
  TGI: 91.8 µg/mL
[28]
  GI50: 24.7 µg/mL
  TGI: 49.8 µg/mL
[29]
  GI50: 28.1 µg/mL
[31]
  GI50: 26.3 µg/mL
  TGI: 90.1 µg/mL
[32]
  GI50: 87.2 µg/mL
[33]
  GI50: 64.1 µg/mL
[34]
  GI50: 35.8 µg/mL
[36]
  GI50: 26.7 µg/mL
  TGI: 77.6 µg/mL
[38]
  GI50: 21.8 µg/mL
  TGI: 49.7 µg/mL
[39]
  GI50: 16.9 µg/mL
  TGI: 37.9 µg/mL
[40]
  GI50: 20.6 µg/mL
  TGI: 37.6 µg/mL
[41]
  GI50: 26.5 µg/mL
  TGI: 68.8 µg/mL
[42]
  GI50: 16.3 µg/mL
  TGI: 30.9 µg/mL
[44]
  GI50: 24.6 µg/mL
  TGI: 66.3 µg/mL
[45]
  GI50: 57.5 µg/mL
[47]
  GI50: 21.4 µg/mL
  TGI: 51.5 µg/mL
[48]
  GI50: 47.8 µg/mL
[49]
  GI50: 95.9 µg/mL
[57]
  GI50: 77 µg/mL (≈ 161 µM)
[50]
  GI50: 34.3 µg/mL
[51]
  GI50: 65.2 µg/mL
[52]
  GI50: 16.2 µg/mL
  TGI: 31.7 µg/mL
[53]
  GI50: 19.5 µg/mL
  TGI: 38.9 µg/mL
[54]
  GI50: 19.7 µg/mL
  TGI: 38.5 µg/mL
